Test results reported in patent publication US4100346A, “Certain 7(o-amino-methyl- or methylaminomethylphenyl- or cyclohexadienyl- or thienylacetamide)-3[1-carboxymethyl-(or ethyl- or propyl-)-tetrazol-5-ylthiomethyl]-3-cephem-4-carboxylic acids” (Bristol-Myers Company, priority 1976, dated 1978).
Read-outs that look alike come from different tables or passages of the source.

Key:
Arizona hinshawii = test: Growth inhibitory activity, antibiotic dilution technique; conditions: Salmonella enterica, read-out: Minimum inhibitory concentration
Staphylococcus Aureus = test: Effect of inoculum size on susceptibility of Staphylococcus aureus; type: cell-based; conditions: for MICB /MICA: MIC at 10^6 over MIC at 10^2 organisms
Listeria monocytogenes = test: Growth inhibitory activity, antibiotic dilution technique; conditions: read-out: Minimum inhibitory concentration
Proteus vulgaris = test: Minimum growth inhibitory and bactericidal concentrations for Enterobacteriaceae; type: cell-based; conditions: Proteus vulgaris, inoculum 10^4 cells; for MBC: read-out: MBC, minimum bactericidal concentration; for MIC: read-out: MIC, Minimum growth inhibitory concentration
Excerpt: (§1) Miscellaneous. Methods for determining bactericidal activity and susceptibility to cell-free β-lactamase were those previously used; Leitner et al., BL-S640, A Cephalosporin With a Broad Spectrum of Antibacterial Activity: Properties in vitro, Antimicrob. Agents Chemother. 7:298-305 (1975).
(§2) *MIC, Minimum growth inhibitory concentration; MBC, minimum bactericidal
(§3) concentration; expressed as micrograms per milliliter. The inoculum was […]

Proteus mirabilis = test: as above; type: cell-based; conditions: for MBC: read-out: MBC, minimum bactericidal concentration; for MIC: read-out: MIC, Minimum growth inhibitory concentration
Excerpt: as §1, §2, §3

Escherichia coli [1] = test: as above; type: cell-based; conditions: for MBC: read-out: MBC, minimum bactericidal concentration; for MIC: read-out: MIC, Minimum growth inhibitory concentration
Excerpt: as §1, §2, §3

Klebsiella pneumoniae = test: as above; type: cell-based; conditions: for MBC: read-out: MBC, minimum bactericidal concentration; for MIC: read-out: MIC, Minimum growth inhibitory concentration
Excerpt: as §1, §2, §3

Enterobacter aerogenes = test: as above; type: cell-based; conditions: Klebsiella aerogenes, inoculum 10^4 cells; for MBC: read-out: MBC, minimum bactericidal concentration; for MIC: read-out: MIC, Minimum growth inhibitory concentration
Excerpt: as §1, §2, §3

Enterobacter cloacae = test: as above; type: cell-based; conditions: for MBC: read-out: MBC, minimum bactericidal concentration; for MIC: read-out: MIC, Minimum growth inhibitory concentration
Excerpt: as §1, §2, §3

Proteus rettgeri [2] = test: as above; type: cell-based; conditions: Providencia rettgeri, inoculum 10^4 cells; for MBC: read-out: MBC, minimum bactericidal concentration; for MIC: read-out: MIC, Minimum growth inhibitory concentration
Excerpt: as §1, §2, §3

Proteus rettgeri [3] = test: Effect of inoculum size on susceptibility of Enterobacteriaceae; conditions: Providencia rettgeri
Escherichia coli [4] = test: as above
Serratia marcescens = test: Growth inhibitory activity, antibiotic dilution technique; conditions: read-out: Minimum inhibitory concentration
Vibrio cholerae = test: as above; conditions: read-out: Minimum inhibitory concentration
Proteus rettgeri [5] = test: as above
Alcaligenes sp. = test: as above
Clostridium sp. = test: microbe, parasite or virus in culture; type: cell-based; conditions: read-out: Minimum inhibitory concentration
Description: Antibiotic spectrum. […] Procedures were as follows:
c. Obligate anaerobes. The assay was performed on solid medium, consisting of Brain Heart Infusion Broth (BBL) supplemented with 5% defibrinated sheep blood and 1% Ionagar (Colab).

[6] = Proteus mirabilis strain 1, inoculum 10^4 cells
[7] = Proteus mirabilis strain 2, inoculum 10^4 cells
[8] = Proteus mirabilis strain 3, inoculum 10^4 cells
[9] = Proteus mirabilis strain 4, inoculum 10^4 cells
[10] = Proteus mirabilis strain 5, inoculum 10^4 cells
[11] = Escherichia coli strain 1, inoculum 10^4 cells
[12] = Escherichia coli strain 2, inoculum 10^4 cells
[13] = Escherichia coli strain 3, inoculum 10^4 cells
[14] = Escherichia coli strain 4, inoculum 10^4 cells
[15] = Escherichia coli strain 5, inoculum 10^4 cells
[16] = Escherichia coli strain 6, inoculum 10^4 cells
[17] = Klebsiella pneumoniae strain 1, inoculum 10^4 cells
[18] = Klebsiella pneumoniae strain 2, inoculum 10^4 cells
[19] = Klebsiella pneumoniae strain 3, inoculum 10^4 cells
[20] = Klebsiella pneumoniae strain 4, inoculum 10^4 cells
[21] = Klebsiella pneumoniae strain 5, inoculum 10^4 cells
[22] = Klebsiella pneumoniae strain 6, inoculum 10^4 cells
[23] = Enterobacter aerogenes strain 1
[24] = Enterobacter aerogenes strain 2
[25] = Enterobacter aerogenes strain 3
[26] = Enterobacter cloacae strain 3, inoculum 10^4 cells
[27] = Enterobacter cloacae strain 4, inoculum 10^4 cells
[28] = Enterobacter cloacae strain 8, inoculum 10^4 cells

CC(=O)OCC1=C(C(=O)O)N2C(=O)[C@@H](NC(=O)Cc3cccs3)[C@H]2SC1 [Cephalothin]
negligible: percent of strains inhibited (Proteus rettgeri [5])
2 µg/mL: MIC (Listeria monocytogenes) | MBC (Proteus vulgaris; Proteus vulgaris strain 1) | MBC (Klebsiella pneumoniae; [17]) | MIC (Klebsiella pneumoniae; [17]) | MIC (Klebsiella pneumoniae; [19]) | MBC (Klebsiella pneumoniae; [22]) | MIC (Klebsiella pneumoniae; [22]) | MBC (Proteus rettgeri [2]; Proteus rettgeri strain 2)
63 µg/mL: MBC (Enterobacter cloacae; [26])
> 250 µg/mL: MBC (Enterobacter aerogenes; [24]) | MBC (Enterobacter aerogenes; [25]) | MBC (Enterobacter cloacae; [27]) | MBC (Enterobacter cloacae; [28]) | MIC (Enterobacter cloacae; [28]) | MIC (Proteus rettgeri [3]; read-out: Minimum Inhibitory Concentration, Proteus rettgeri strain 2, B, Inoculum of 10^6 organisms) | MIC (Proteus rettgeri [3]; read-out: Minimum Inhibitory Concentration, Proteus rettgeri strain 3, B, Inoculum of 10^6 organisms)
4 µg/mL: MIC (Proteus mirabilis; [9]) | MIC (Escherichia coli [1]; [13]) | MIC (Klebsiella pneumoniae; [18]) | MBC (Klebsiella pneumoniae; [19]) | MBC (Klebsiella pneumoniae; [20]) | MIC (Klebsiella pneumoniae; [20]) | MIC (Escherichia coli [4]; read-out: Minimum Inhibitory Concentration, Escherichia coli strain 3, A, Inoculum of 10^2 organisms) | MIC (Escherichia coli [4]; read-out: Minimum Inhibitory Concentration, Escherichia coli strain 4, A, Inoculum of 10^2 organisms) | MIC (Escherichia coli [4]; read-out: Minimum Inhibitory Concentration, Escherichia coli strain 5, A, Inoculum of 10^2 organisms)
> 125 µg/mL: MIC (Serratia marcescens) | MIC (Alcaligenes sp.; read-out: Minimum inhibitory concentration, Alcaligenes sp., 2 strains, geometric mean when applicable)
> 105 µg/mL: MIC (Alcaligenes sp.; read-out: Minimum inhibitory concentration, Alcaligenes sp., 4 strains, geometric mean when applicable)
1.0: MICB /MICA (Staphylococcus Aureus; Lacking penicillinase, 3 strains)
8 µg/mL: MIC (Proteus vulgaris; Proteus vulgaris strain 2) | MIC (Proteus vulgaris; Proteus vulgaris strain 4) | MIC (Proteus mirabilis; [6]) | MIC (Proteus mirabilis; [7]) | MBC (Proteus mirabilis; [8]) | MIC (Proteus mirabilis; [8]) | MBC (Proteus mirabilis; [9]) | MIC (Proteus mirabilis; [10]) | MIC (Escherichia coli [1]; [11]) | MBC (Escherichia coli [1]; [13]) | MIC (Escherichia coli [1]; [14]) | MBC (Klebsiella pneumoniae; [18]) | MBC (Klebsiella pneumoniae; [21]) | MIC (Klebsiella pneumoniae; [21]) | MIC (Escherichia coli [4]; read-out: Minimum Inhibitory Concentration, Escherichia coli strain 1, A, Inoculum of 10^2 organisms) | MIC (Escherichia coli [4]; read-out: Minimum Inhibitory Concentration, Escherichia coli strain 6, A, Inoculum of 10^2 organisms) | MIC (Escherichia coli [4]; read-out: Minimum Inhibitory Concentration, Escherichia coli strain 7, B, Inoculum of 10^6 organisms)
32 µg/mL: MBC (Proteus mirabilis; [6]) | MBC (Proteus mirabilis; [7]) | MBC (Escherichia coli [1]; [12]) | MIC (Escherichia coli [1]; [12]) | MIC (Enterobacter cloacae; [26]) | MIC (Proteus rettgeri [3]; read-out: Minimum Inhibitory Concentration, Proteus rettgeri strain 3, A, Inoculum of 10^2 organisms) | MIC (Escherichia coli [4]; read-out: Minimum Inhibitory Concentration, Escherichia coli strain 1, B, Inoculum of 10^6 organisms) | MIC (Escherichia coli [4]; read-out: Minimum Inhibitory Concentration, Escherichia coli strain 2, B, Inoculum of 10^6 organisms) | MIC (Escherichia coli [4]; read-out: Minimum Inhibitory Concentration, Escherichia coli strain 4, B, Inoculum of 10^6 organisms) | MIC (Escherichia coli [4]; read-out: Minimum Inhibitory Concentration, Escherichia coli strain 5, B, Inoculum of 10^6 organisms)
0.5 µg/mL: MIC (Clostridium sp.)
1.3 µg/mL: MIC (Alcaligenes sp.; read-out: Minimum inhibitory concentration, Alcaligenes sp., 5 strains, geometric mean when applicable)
16 µg/mL: MBC (Proteus vulgaris; Proteus vulgaris strain 2) | MBC (Proteus vulgaris; Proteus vulgaris strain 4) | MBC (Proteus mirabilis; [10]) | MBC (Escherichia coli [1]; [11]) | MBC (Escherichia coli [1]; [14]) | MBC (Escherichia coli [1]; [15]) | MIC (Escherichia coli [1]; [15]) | MBC (Escherichia coli [1]; [16]) | MIC (Escherichia coli [1]; [16]) | MIC (Escherichia coli [4]; read-out: Minimum Inhibitory Concentration, Escherichia coli strain 2, A, Inoculum of 10^2 organisms) | MIC (Escherichia coli [4]; read-out: Minimum Inhibitory Concentration, Escherichia coli strain 3, B, Inoculum of 10^6 organisms) | MIC (Escherichia coli [4]; read-out: Minimum Inhibitory Concentration, Escherichia coli strain 6, B, Inoculum of 10^6 organisms)
250 µg/mL: MBC (Enterobacter aerogenes; [23]) | MIC (Enterobacter aerogenes; [25]) | MIC (Enterobacter cloacae; [27]) | MBC (Proteus rettgeri [2]; Proteus rettgeri strain 3) | MIC (Proteus rettgeri [3]; read-out: Minimum Inhibitory Concentration, Proteus rettgeri strain 1, B, Inoculum of 10^6 organisms)
2.2: MICB /MICA (Staphylococcus Aureus; Penicillinase producer, 26 strains)
slightly: effect of cell concentration on growth inhibitory activity (Staphylococcus Aureus)
2.8 µg/mL: MIC (Arizona hinshawii)
1 µg/mL: MIC (Proteus vulgaris; Proteus vulgaris strain 1) | MIC (Proteus rettgeri [2]; Proteus rettgeri strain 2) | MIC (Escherichia coli [4]; read-out: Minimum Inhibitory Concentration, Escherichia coli strain 7, A, Inoculum of 10^2 organisms) | MIC (Vibrio cholerae)
0.25 µg/mL: MIC (Proteus rettgeri [3]; read-out: Minimum Inhibitory Concentration, Proteus rettgeri strain 1, A, Inoculum of 10^2 organisms) | MIC (Proteus rettgeri [3]; read-out: Minimum Inhibitory Concentration, Proteus rettgeri strain 2, A, Inoculum of 10^2 organisms)
125 µg/mL: MIC (Enterobacter aerogenes; [23]) | MIC (Enterobacter aerogenes; [24]) | MIC (Proteus rettgeri [2]; Proteus rettgeri strain 3)
